Data as given in patent US7294739B1, “Basic amine esters or oleic acid and their use as anti-inflammatory or immunobodulatory agents” (Teva Pharmacaetical Industries Ltd., priority 2006, dated 2007).

Test system: Delayed type hypersensitivity (DTH) skin reaction
Assay: Inhibition of DTH skin reactions (oxazolone-induced mouse ear swelling test)
Type: in vivo, female Balb/c mice
Settings: for % Inf ((diff/baseline measurement)×100) / % Inhibit ([1−(diff/diff of PBS)]×100) / Diff. (average difference between baseline and post treatment ear measurements): 24 hours after challenge; for effectiveness in the DTH skin reaction model: 5-100 mg/ml
Description: Delayed type hypersensitivity (DTH), a localized inflammatory reaction induced by cytokines secreted by TH cells when they encounter certain types of antigens, is an established experimental model for skin inflammation.
DTH reactions were induced in the abdomen skin of 8 week old female Balb/c mice. The mice were sensitized first by topical application of 100 μl of a 5% Oxazolone (4-Ethoxymethylene-2-phenyl-2-oxazolin-5-one; Sigma) solution in ethanol/acetone (3:1, vol/vol) to a shaved abdomen. The mice were anesthetized with ip injection of Ketamine (1 ml)+Xylazine (1 ml)+Saline (8 ml), (0.2 ml per 20 g mouse). Anesthetization was performed before the shaving of the abdomen and the first sensitization.
After 4 days the mice were challenged for the second time using 1% Oxazolone (4-Ethoxymethylene-2-phenyl-2-oxazolin-5-one; Sigma) solution in ethanol/acetone (3:1, vol/vol). The solution was pipetted to the shaved abdomen of the mice.
Six days after the first sensitization, the right ear of each mouse was challenged with a topical application of 20 μl (10 μl on each surface of the ear) of a 1% Oxazolone solution in olive oil/acetone (3:1, vol/vol).
Treatment was given 30 min after challenging by applying 40 μl (20 μl on each surface of the ear) of treatment compounds on the challenged ear of each mouse.
After 24 hours, the extent of inflammation was measured using the mouse ear swelling test (caliper) and the percent inhibition induced by the treatment was quantified.
The experiment includes groups treated with 5, 15, 40, and 100 mg/ml of octadec-(Z)-9-enoic acid 4-dimethylaminomethyl-benzyl ester HCl (1c) and groups treated with 5, 15, 40, and 100 mg/ml of octadec-(Z)-9-enoic acid 4-dimethylaminomethyl-phenyl ester HCl (2d). The experiment also includes dexamethasone (2 mg/mouse) as a positive control, one negative control group (PBS, phosphate buffered saline), and one naïve group. There were 6 mice per group. The researchers who performed the measurements were blinded as to the grouping of each mouse.
In Table 1, “diff” refers to average difference between baseline and post treatment measurements in mm; “% Inf” refers to the (diff/baseline measurement)×100; and, “% Inhibit” refers to [1−(diff/diff of PBS)]×100. Baseline measurements of the ear were conducted before the first sensitization.

[1] = topical on challenged ear, treatment 5 mg/ml (0.2 mg/mouse)
[2] = topical on challenged ear, treatment 15 mg/ml (0.6 mg/mouse)
[3] = topical on challenged ear, treatment 40 mg/ml (1.6 mg/mouse)
[4] = topical on challenged ear, treatment 100 mg/ml (4 mg/mouse)
[5] = positive control, dose 2 mg/mouse

SMILES	% Inf ((diff/baseline measurement)×100) [1]	% Inhibit ([1−(diff/diff of PBS)]×100) [1]	Diff. (average difference between baseline and post treatment ear measurements) [1]	% Inf ((diff/baseline measurement)×100) [2]	% Inhibit ([1−(diff/diff of PBS)]×100) [2]	Diff. (average difference between baseline and post treatment ear measurements) [2]	% Inf ((diff/baseline measurement)×100) [3]	% Inhibit ([1−(diff/diff of PBS)]×100) [3]	Diff. (average difference between baseline and post treatment ear measurements) [3]	% Inf ((diff/baseline measurement)×100) [4]	% Inhibit ([1−(diff/diff of PBS)]×100) [4]	Diff. (average difference between baseline and post treatment ear measurements) [4]	effectiveness in the DTH skin reaction model (topical)	most effective doses (DTH skin reaction model, topical)	% Inf ((diff/baseline measurement)×100) [5]	% Inhibit ([1−(diff/diff of PBS)]×100) [5]	Diff. (average difference between baseline and post treatment ear measurements) [5]
CCCCCCCC/C=C\CCCCCCCC(=O)OCc1ccc(CN(C)C)cc1.Cl [Compound 1c, Octadec-(Z)-9-enoic acid 4-dimethylaminomethyl-benzyl ester HCl]	92.65%	26.74%	0.20 mm	103.21%	26.01%	0.20 mm	58.56%	54.82%	0.12 mm	48.19%	63.37%	0.10 mm	effective				
CCCCCCCC/C=C\CCCCCCCC(=O)Oc1ccc(CN(C)C)cc1.Cl [Compound 2d, Octadec-(Z)-9-enoic acid 4-dimethylaminomethyl-phenyl ester HCl]	113.46%	13.31%	0.24 mm	107.18%	21.25%	0.22 mm	114.66%	13.31%	0.24 mm	55.96%	59.10%	0.11 mm	effective	100 mg/mL			
C[C@@H]1C[C@H]2[C@@H]3CCC4=CC(=O)C=C[C@]4(C)[C@@]3(F)[C@@H](O)C[C@]2(C)[C@@]1(O)C(=O)CO [Positive control, dexamethasone, reference compound]															20.55%	84.74%	0.04 mm
